By TGI is commonly meant the concentration giving total growth inhibition. Read a high TGI as lower sensitivity of the cells. The term GI50 denotes the concentration at which growth is held to half of that of the control.

Several values for one entry are separate records, joined by “and”; a condition that tells them apart may be missing. Equal values may be shown once.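 48-hour exposure; five concentrations; linearly interpolated endpoints. GI50 = concentration required for 50% inhibition of growth. TGI marks complete inhibition of growth.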

In the first assay the test system is KM12 colon. The assay is described as follows: DTP human tumour cell line panel, 48 h.
The compound `Cc1ccc(C(=O)Cc2nc3c([nH]c2=O)c(C)nn3-c2ccccc2)c(C)c1` displayed a TGI of over 10 µM.
For the compound `Clc1ccccc1NN(Cc1ccccn1)c1ccccc1Cl`, the TGI was found to be 32.9 µM. In other words, the double-digit micromolar range.
Turning to `Cn1cc(C2=C(c3cn(C)c4ccc(N)cc34)C(=O)NC2=O)c2ccccc21`, the GI50 was 6.4 µM and the TGI was over 25 µM.
As for `S=C(N/N=C/c1cc(Cl)cc(Cl)c1)NC12CC3CC(CC(C3)C1)C2`, the GI50 was over 100 µM and the TGI was over 100 µM.
Regarding `CCCCN1C(=O)CC2[C@@H]3CCc4cc(OC)ccc4C3CC[C@]2(C)C1=O` (stereo not given in full), the TGI was over 10 µM.
Turning to `COc1cc2cc(Oc3ccc(NC(=O)c4cccc(C(F)(F)F)c4)cc3)c(C)nc2cc1OC`, the GI50 was 4.03 µM and the TGI is over 100 µM.
`Cc1nc(SCC(N)=O)c2sc(=S)n(-c3ccccc3)c2n1` gave a TGI of over 10 µM.
For the compound `COc1cc(-c2oc3ccccc3c(=O)c2O)cc(OC)c1OC`, the TGI was over 100 µM.
`CSc1ccc(/C=C2\CNC/C(=C\c3ccc(SC)cc3)C2=O)cc1`: the GI50 was 150 µg/mL; the TGI is > 371 µM and 150 µg/mL.
`C/C(=N\O)c1ccc(Nc2cc(-n3nnc4ccccc43)nc3ccccc23)cc1`: the GI50 was 2.98 µM and the TGI stood at 10.9 µM.
For `Clc1ccc(COC(Cn2ccnc2)c2ccc(Cl)cc2Cl)cc1` (stereo not given), the GI50 was 3.18 µM; the TGI was 11 µM and 29.5 µM and 28.4 µM.
Regarding `CC[C@H](C)[C@H](NC(=O)c1cnccn1)C(=O)N(C)[C@H](C[C@@H](OC(C)=O)c1nc(C(=O)N[C@@H](Cc2ccccc2)C[C@H](C)C(=O)OC)cs1)C(C)C`, the GI50 is 0.107 µM and the TGI was over 33.3 µM.
Compound `Nc1c(C(=O)Nc2ccc([As](=O)(O)O)cc2)cnc2nnnn12` registered a total growth inhibition concentration (TGI) of over 100 µM.
On to `CC(C)n1c(/C=C/[C@@H](O)C[C@@H](O)CC(=O)O)c(-c2ccc(F)cc2)c2ccccc21`, for which the GI50 is 16.6 µM and 21.9 µM; the TGI was over 100 µM.
Take `N#CC(C#N)SCc1ccccc1`: the TGI was over 100 µM.
On the same count and under the same terms, in the case of `CCOc1ccc(NCC2CC/C(=C\C=C\c3ccccc3)C2=O)cc1` (stereo not given) it was 20.1 µM.
Consider `Cc1cc(N(CCNc2ccnc3cc(Cl)ccc23)Cc2ccc3c(c2)OCO3)nc(N2CCN(C)CC2)n1`, for which the GI50 was 4.42 µM and the TGI amounted to 17.7 µM.

In a further assay the test system is SK-MEL-5 melanoma. The assay is described as follows: DTP human tumour cell line panel, 48 h.
`Cc1ccc(C(=O)Cc2nc3c([nH]c2=O)c(C)nn3-c2ccccc2)c(C)c1`: the TGI is over 10 µM.
On the same count and under the same terms, the figure for `Clc1ccccc1NN(Cc1ccccn1)c1ccccc1Cl` is 27.9 µM.
For `Cn1cc(C2=C(c3cn(C)c4ccc(N)cc34)C(=O)NC2=O)c2ccccc21`, the GI50 was 6.91 µM and the TGI was over 25 µM.
Take `S=C(N/N=C/c1cc(Cl)cc(Cl)c1)NC12CC3CC(CC(C3)C1)C2`: the GI50 was over 100 µM and the TGI was over 100 µM.
`CCCCN1C(=O)CC2[C@@H]3CCc4cc(OC)ccc4C3CC[C@]2(C)C1=O` (stereo not given in full) returned a TGI of over 10 µM.
In the case of `COc1cc2cc(Oc3ccc(NC(=O)c4cccc(C(F)(F)F)c4)cc3)c(C)nc2cc1OC`, the GI50 is 2.45 µM and the TGI was 8.84 µM.
As to `Cc1nc(SCC(N)=O)c2sc(=S)n(-c3ccccc3)c2n1`, the TGI was over 10 µM.
Regarding `COc1cc(-c2oc3ccccc3c(=O)c2O)cc(OC)c1OC`, the TGI was over 100 µM.
With `CSc1ccc(/C=C2\CNC/C(=C\c3ccc(SC)cc3)C2=O)cc1`, the GI50 was 150 µg/mL; the TGI was > 371 µM and 150 µg/mL.
For `C/C(=N\O)c1ccc(Nc2cc(-n3nnc4ccccc43)nc3ccccc23)cc1`, the GI50 was 5.57 µM and the TGI stood at 16.6 µM.
With `Clc1ccc(COC(Cn2ccnc2)c2ccc(Cl)cc2Cl)cc1` (stereo not given), the GI50 is 1.74 µM and 17.2 µM and 4.83 µM; the total growth inhibition concentration (TGI) was 3.64 µM and 31 µM and 18.9 µM.
For the compound `CC[C@H](C)[C@H](NC(=O)c1cnccn1)C(=O)N(C)[C@H](C[C@@H](OC(C)=O)c1nc(C(=O)N[C@@H](Cc2ccccc2)C[C@H](C)C(=O)OC)cs1)C(C)C`, the GI50 was 0.809 µM and the concentration for total growth inhibition (TGI) came out at 2.87 µM.
Turning to `Nc1c(C(=O)Nc2ccc([As](=O)(O)O)cc2)cnc2nnnn12`, the TGI is over 100 µM.
`CC(C)n1c(/C=C/[C@@H](O)C[C@@H](O)CC(=O)O)c(-c2ccc(F)cc2)c2ccccc21`: the GI50 is 3.94 µM and 4.9 µM; the total growth inhibition concentration (TGI) was 35.4 µM and 27 µM.
In the case of `N#CC(C#N)SCc1ccccc1`, the TGI was over 85.6 µM.
Compound `CCOc1ccc(NCC2CC/C(=C\C=C\c3ccccc3)C2=O)cc1` (stereo not given) had a TGI of 30.7 µM.
With `Cc1cc(N(CCNc2ccnc3cc(Cl)ccc23)Cc2ccc3c(c2)OCO3)nc(N2CCN(C)CC2)n1`, the GI50 was 1.79 µM and the total growth inhibition concentration (TGI) worked out at 3.25 µM.

Another assay relates to IGROV1 ovarian. The assay is described as follows: DTP human tumour cell line panel, 48 h.
Take `Cc1ccc(C(=O)Cc2nc3c([nH]c2=O)c(C)nn3-c2ccccc2)c(C)c1`: the TGI is over 10 µM.
Same read-out and setting: in the case of `Clc1ccccc1NN(Cc1ccccn1)c1ccccc1Cl` it was 42.2 µM.
For the compound `Cn1cc(C2=C(c3cn(C)c4ccc(N)cc34)C(=O)NC2=O)c2ccccc21`, the GI50 was 23.8 µM and the TGI was over 25 µM.
On to `S=C(N/N=C/c1cc(Cl)cc(Cl)c1)NC12CC3CC(CC(C3)C1)C2`, for which the GI50 is 8.8 µM and the TGI is over 100 µM.
Consider `CCCCN1C(=O)CC2[C@@H]3CCc4cc(OC)ccc4C3CC[C@]2(C)C1=O` (stereo not given in full), for which the TGI was over 10 µM.
`COc1cc2cc(Oc3ccc(NC(=O)c4cccc(C(F)(F)F)c4)cc3)c(C)nc2cc1OC`: the GI50 is 6.78 µM and the TGI was over 100 µM.
The compound `Cc1nc(SCC(N)=O)c2sc(=S)n(-c3ccccc3)c2n1` came in with a TGI of over 10 µM.
For `COc1cc(-c2oc3ccccc3c(=O)c2O)cc(OC)c1OC`, the TGI was over 100 µM.
`CSc1ccc(/C=C2\CNC/C(=C\c3ccc(SC)cc3)C2=O)cc1`: the GI50 is 26.3 µg/mL; the TGI was > 162 µM and 110 µg/mL.

For the origin of these results see PubChem BioAssay (NCI).
